The values below come from US8906944B2, “Compounds as tyrosine kinase modulators” (Allergan, Inc., priority 2009, dated 2014).

Molecules are shown by their SMILES. pIC50: −log10 of the molar value.

Type in all cases: biochemical
Assay [1] deals with PDGFβ (Homo sapiens, UniProt P09619). In words: PDGFβ enzyme assay. The settings on record: Table IV, amide or urea linker.
The target in assay [2] is VEGFR1 (Homo sapiens, UniProt P17948). Description: VEGFR1 enzyme assay. As to conditions: Table IV, amide or urea linker.
Assay [3] deals with T1, human VEGF receptor (VEGFR-2) (Homo sapiens, UniProt P35968).
T1 construct: The cytoplasmic domain of the human VEGF receptor (VEGFR-2) was expressed; His; made in house; host or cells: insect cells (baculovirus)
Description: VEGFR2 kinase assay. As to conditions: His-VEGFR-2 cytoplasmic domain, 3.6 μM ATP; Table IV, amide or urea linker; read-out: VEGFR2 Enzyme IC50. The procedure: The cytoplasmic domain of the human VEGF receptor (VEGFR-2) was expressed as a Histidine-tagged fusion protein following infection of insect cells using an H is engineered baculovirus. […] Kinase assays were performed in 96 well microtiter plates that were coated overnight with 30 µg of poly-Glu-Tyr (4:1) in 10 mM Phosphate Buffered Saline (PBS), pH 7.2-7.4. The plates were incubated with 1% BSA and then washed four times with PBS prior to starting the reaction. Reactions were carried out in 120 µL reaction volumes containing 3.6 µM ATP in kinase buffer (50 mM Hepes buffer pH 7.4, 20 mM MgCl2, 0.1 mM MnCl2 and 0.2 mM Na3 VO4). […] Reactions were initiated by the addition 0.5 ng of purified protein. Following a ten minute incubation at 25 degree. […] IC50 values for compound inhibition were calculated directly from graphs of optical density (arbitrary units) versus compound concentration following subtraction of blank values.

VEGFR1, sequence (P17948 27-1338, species assumed): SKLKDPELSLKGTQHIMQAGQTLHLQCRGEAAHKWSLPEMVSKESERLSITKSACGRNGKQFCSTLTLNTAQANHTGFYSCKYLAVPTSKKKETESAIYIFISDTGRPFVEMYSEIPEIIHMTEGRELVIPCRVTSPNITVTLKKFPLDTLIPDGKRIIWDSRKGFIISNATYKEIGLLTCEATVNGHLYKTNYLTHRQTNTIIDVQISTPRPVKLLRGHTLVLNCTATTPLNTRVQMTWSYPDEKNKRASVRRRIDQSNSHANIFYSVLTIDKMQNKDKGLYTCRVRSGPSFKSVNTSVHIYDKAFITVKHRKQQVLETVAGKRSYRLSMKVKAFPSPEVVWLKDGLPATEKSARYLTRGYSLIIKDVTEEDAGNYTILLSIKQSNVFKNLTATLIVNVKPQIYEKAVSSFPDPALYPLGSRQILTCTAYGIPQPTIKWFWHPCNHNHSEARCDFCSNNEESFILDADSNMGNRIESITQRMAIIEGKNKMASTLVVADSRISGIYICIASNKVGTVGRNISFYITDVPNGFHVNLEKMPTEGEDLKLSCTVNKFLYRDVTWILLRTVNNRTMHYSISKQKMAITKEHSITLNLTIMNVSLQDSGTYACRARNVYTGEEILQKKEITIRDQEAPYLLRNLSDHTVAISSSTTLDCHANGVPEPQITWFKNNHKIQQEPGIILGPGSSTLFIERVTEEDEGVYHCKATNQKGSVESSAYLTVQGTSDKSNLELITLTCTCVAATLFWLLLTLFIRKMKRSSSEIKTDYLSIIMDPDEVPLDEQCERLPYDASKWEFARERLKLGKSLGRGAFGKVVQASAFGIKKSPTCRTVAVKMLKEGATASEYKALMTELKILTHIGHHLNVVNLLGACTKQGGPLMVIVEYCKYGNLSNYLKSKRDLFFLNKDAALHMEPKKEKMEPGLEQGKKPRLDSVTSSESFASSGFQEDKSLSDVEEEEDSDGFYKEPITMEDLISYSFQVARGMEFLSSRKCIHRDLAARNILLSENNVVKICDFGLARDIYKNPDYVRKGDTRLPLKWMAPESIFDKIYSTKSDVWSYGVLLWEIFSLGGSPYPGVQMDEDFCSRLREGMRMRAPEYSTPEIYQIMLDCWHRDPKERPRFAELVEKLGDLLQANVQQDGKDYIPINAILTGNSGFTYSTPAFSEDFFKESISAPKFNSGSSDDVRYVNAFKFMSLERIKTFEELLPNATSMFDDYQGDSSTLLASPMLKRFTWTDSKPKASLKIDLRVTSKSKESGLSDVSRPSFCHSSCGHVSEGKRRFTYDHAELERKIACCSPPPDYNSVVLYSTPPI
PDGFβ, sequence (P09619 33-1106): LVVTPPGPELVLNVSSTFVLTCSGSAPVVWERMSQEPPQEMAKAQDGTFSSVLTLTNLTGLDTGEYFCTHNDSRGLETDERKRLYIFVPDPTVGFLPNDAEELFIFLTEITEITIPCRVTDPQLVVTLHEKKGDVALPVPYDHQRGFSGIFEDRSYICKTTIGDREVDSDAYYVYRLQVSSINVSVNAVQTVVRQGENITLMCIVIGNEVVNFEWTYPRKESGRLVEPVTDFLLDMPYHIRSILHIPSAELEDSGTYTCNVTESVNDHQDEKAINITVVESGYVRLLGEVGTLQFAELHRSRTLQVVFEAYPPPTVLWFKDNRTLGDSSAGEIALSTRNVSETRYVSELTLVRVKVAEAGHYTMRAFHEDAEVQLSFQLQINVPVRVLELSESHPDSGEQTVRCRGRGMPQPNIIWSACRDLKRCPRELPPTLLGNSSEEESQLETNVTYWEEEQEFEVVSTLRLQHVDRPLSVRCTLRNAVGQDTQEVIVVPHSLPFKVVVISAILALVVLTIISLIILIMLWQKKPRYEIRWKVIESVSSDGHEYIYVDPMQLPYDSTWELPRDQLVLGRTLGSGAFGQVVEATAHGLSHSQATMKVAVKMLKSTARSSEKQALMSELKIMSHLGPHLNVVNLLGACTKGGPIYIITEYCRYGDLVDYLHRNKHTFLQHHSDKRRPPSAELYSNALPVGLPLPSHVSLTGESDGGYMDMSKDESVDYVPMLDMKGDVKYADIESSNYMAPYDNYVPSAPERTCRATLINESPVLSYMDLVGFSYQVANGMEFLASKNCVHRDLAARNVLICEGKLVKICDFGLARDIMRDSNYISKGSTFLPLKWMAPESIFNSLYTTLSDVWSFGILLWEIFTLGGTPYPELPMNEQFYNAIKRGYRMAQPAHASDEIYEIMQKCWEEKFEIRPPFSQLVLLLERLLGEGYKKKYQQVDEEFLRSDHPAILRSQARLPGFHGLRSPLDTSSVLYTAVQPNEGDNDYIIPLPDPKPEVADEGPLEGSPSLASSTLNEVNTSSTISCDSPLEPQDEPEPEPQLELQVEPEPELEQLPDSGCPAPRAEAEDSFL
T1 sequence (P35968 786-1356 limits assumed): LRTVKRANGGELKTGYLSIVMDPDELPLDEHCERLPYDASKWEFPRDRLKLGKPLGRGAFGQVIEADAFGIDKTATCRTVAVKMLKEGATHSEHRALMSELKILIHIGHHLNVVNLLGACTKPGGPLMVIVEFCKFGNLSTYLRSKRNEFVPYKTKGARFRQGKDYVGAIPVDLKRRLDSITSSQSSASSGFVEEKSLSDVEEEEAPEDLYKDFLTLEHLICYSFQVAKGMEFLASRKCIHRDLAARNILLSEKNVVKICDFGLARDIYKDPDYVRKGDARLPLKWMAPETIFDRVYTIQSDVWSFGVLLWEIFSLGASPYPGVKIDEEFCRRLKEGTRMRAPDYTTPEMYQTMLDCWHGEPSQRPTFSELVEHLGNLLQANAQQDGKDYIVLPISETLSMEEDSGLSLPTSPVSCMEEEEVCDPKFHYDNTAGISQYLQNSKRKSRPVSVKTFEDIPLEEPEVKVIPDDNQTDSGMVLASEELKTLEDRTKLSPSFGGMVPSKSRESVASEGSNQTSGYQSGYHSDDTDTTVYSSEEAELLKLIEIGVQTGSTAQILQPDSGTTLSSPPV

Consider `CCNC(=O)CC[C@H](NC(=O)c1c[nH]c(-c2cc(Oc3cc(C(=O)Nc4cc(C)ccc4F)ccc3F)ccn2)c1)C(=O)NCC` (stereo in doubt) [Example 246, N,N′-diethyl-2-[({5-[4-(2-fluoro-5-{[(2-fluoro-5-methylphenyl)amino]carbonyl}phenoxy)pyridin-2-yl]-1H-pyrrol-3-yl}carbonyl)amino]pentanediamide], for which the pIC50 (as a rule, the IC50 on a negative log10 scale, so that one unit is a factor of ten) in assay [1] is 7.27; in assay [2], 7.21; in assay [3] it was 7.38.

As to `Cc1ccc(F)c(NC(=O)c2ccc(F)c(Oc3ccnc(-c4cc(C(=O)N[C@@H](CCC(=O)O)C(=O)O)c[nH]4)c3)c2)c1` (stereo in doubt) [Example 248, 2-[({5-[4-(2-fluoro-5-{[(2-fluoro-5-methylphenyl)amino]carbonyl}phenoxy)pyridin-2-yl]-1H-pyrrol-3-yl}carbonyl)amino]pentanedioic acid], the pIC50 in assay [1] was 6.80; in assay [2], 7.55; in assay [3] it was 7.25.

As to `Cc1ccc(F)c(NC(=O)Nc2ccc(Oc3ccnc(-c4cc(C(=O)NCCCc5nn[nH]n5)c[nH]4)c3)cc2)c1` [Example 149, 5-{4-[4-({[(2-fluoro-5-methylphenyl)amino]carbonyl}amino)phenoxy]pyridin-2-yl}-N-[3-(2H-tetrazol-5-yl)propyl]-1H-pyrrole-3-carboxamide], the pIC50 in assay [1] is 7.89; in assay [2] it was 8.22; in assay [3], 8.40.

Take `Cc1ccc(F)c(NC(=O)Nc2ccc(Oc3ccnc(-c4cc(C(=O)NCCc5nn[nH]n5)c[nH]4)c3)cc2)c1` [Example 150, 5-{4-[4-({[(2-fluoro-5-methylphenyl)amino]carbonyl}amino)phenoxy]pyridin-2-yl}-N-[2-(2H-tetrazol-5-yl)ethyl]-1H-pyrrole-3-carboxamide]: the values for the pIC50 in assay [1], in assay [2] and in assay [3] were 7.80, 8.15 and 8.30, respectively.

Consider `Cc1ccc(F)c(NC(=O)Nc2ccc(Oc3ccnc(-c4cc(C(=O)NCCCN5CCCC(CO)C5)c[nH]4)c3)cc2)c1` (stereo not drawn) [Example 160, 5-{4-[4-({[(2-fluoro-5-methylphenyl)amino]carbonyl}amino)phenoxy]pyridin-2-yl}-N-{3-[3-(hydroxymethyl)piperidin-1-yl]propyl}-1H-pyrrole-3-carboxamide], for which the values for the negative logarithm of the IC50 (pIC50) in assay [1], in assay [2] and in assay [3] were 7.72, 8.15 and 8.05, respectively.

Consider `Cc1ccc(F)c(NC(=O)Nc2ccc(Oc3ccnc(-c4cc(C(=O)NCCCCC(=O)O)c[nH]4)c3)cc2)c1` [Example 166, 5-{[(5-{4-[4-({[(2-fluoro-5-methylphenyl)amino]carbonyl}amino)phenoxy]pyridin-2-yl}-1H-pyrrol-3-yl)carbonyl]amino}pentanoic acid], for which the values for the pIC50 in assay [1], in assay [2] and in assay [3] were 7.96, 8.22 and 8.30, respectively.

`COC(=O)CNCCCNC(=O)c1c[nH]c(-c2cc(Oc3cc(C(=O)Nc4cc(C)ccc4F)ccc3F)ccn2)c1` [Example 180, methyl ({3-[({5-[4-(2-fluoro-5-{[(2-fluoro-5-methylphenyl)amino]carbonyl}phenoxy)pyridin-2-yl]-1H-pyrrol-3-yl}carbonyl)amino]propyl}amino)acetate]: the values for the pIC50 in assay [1], in assay [2] and in assay [3] were 7.28, 7.49 and 7.85, respectively.

As for `COC(=O)CNCCNC(=O)c1c[nH]c(-c2cc(Oc3cc(C(=O)Nc4cc(C)ccc4F)ccc3F)ccn2)c1` [Example 181, methyl ({2-[({5-[4-(2-fluoro-5-{[(2-fluoro-5-methylphenyl)amino]carbonyl}phenoxy)pyridin-2-yl]-1H-pyrrol-3-yl}carbonyl)amino]ethyl}amino)acetate], the pIC50 in assay [1] was 6.88; in assay [2] it was 7.19; in assay [3], 7.66.

`Cc1ccc(F)c(NC(=O)c2ccc(F)c(Oc3ccnc(-c4cc(C(=O)NCCCN5CCC(O)CC5)c[nH]4)c3)c2)c1` [Example 184, 5-[4-(2-fluoro-5-{[(2-fluoro-5-methylphenyl)amino]carbonyl}phenoxy)pyridin-2-yl]-N-[3-(4-hydroxypiperidin-1-yl)propyl]-1H-pyrrole-3-carboxamide]: the figures for the pIC50 in assay [1], in assay [2] and in assay [3] were 7.31, 7.29 and 7.72, respectively.

For the compound `Cc1ccc(F)c(NC(=O)c2ccc(F)c(Oc3ccnc(-c4cc(C(=O)NCCCN5CCCC5)c[nH]4)c3)c2)c1` [Example 187, 5-[4-(2-fluoro-5-{[(2-fluoro-5-methylphenyl)amino]carbonyl}phenoxy)pyridin-2-yl]-N-(3-pyrrolidin-1-ylpropyl)-1H-pyrrole-3-carboxamide], the pIC50 in assay [1] is 7.01; in assay [2] it was 7.57; in assay [3], 7.82.

Consider `Cc1ccc(F)c(NC(=O)Nc2ccc(Oc3ccnc(-c4cc(C(=O)NCCCN(C)CC(O)CO)c[nH]4)c3)cc2F)c1` (stereo not drawn) [Example 195, N-{3-[(2,3-dihydroxypropyl)(methyl)amino]propyl}-5-{4-[3-fluoro-4-({[(2-fluoro-5-methylphenyl)amino]carbonyl}amino)phenoxy]pyridin-2-yl}-1H-pyrrole-3-carboxamide], for which the pIC50 is 7.72 in assay [1], 8.05 in assay [2] and 8.15 in assay [3].

For `COC(=O)CNCCCNC(=O)c1c[nH]c(-c2cc(Oc3ccc(NC(=O)Nc4cc(C)ccc4F)c(F)c3)ccn2)c1` [Example 196, methyl [(3-{[(5-{4-[3-fluoro-4-({[(2-fluoro-5-methylphenyl)amino]carbonyl}amino)phenoxy]pyridin-2-yl}-1H-pyrrol-3-yl)carbonyl]amino}propyl)amino]acetate], the pIC50 in assay [1] is 7.72; in assay [2], 8.00; in assay [3] it was 8.10.

On to `Cc1ccc(F)c(NC(=O)Nc2ccc(Oc3ccnc(-c4cc(C(=O)NCCCN5CCCC(CO)C5)c[nH]4)c3)cc2F)c1` (stereo not drawn) [Example 205, 5-{4-[3-fluoro-4-({[(2-fluoro-5-methylphenyl)amino]carbonyl}amino)phenoxy]pyridin-2-yl}-N-{3-[3-(hydroxymethyl)piperidin-1-yl]propyl}-1H-pyrrole-3-carboxamide], for which the negative logarithm of the IC50 (pIC50) is 7.82 in assay [1], 8.05 in assay [2] and 8.10 in assay [3].

Regarding `Cc1ccc(F)c(NC(=O)Nc2ccc(Oc3ccnc(-c4cc(C(=O)NCCCN5CCOC(CO)C5)c[nH]4)c3)cc2F)c1` (stereo not drawn) [Example 206, 5-{4-[3-fluoro-4-({[(2-fluoro-5-methylphenyl)amino]carbonyl}amino)phenoxy]pyridin-2-yl}-N-{3-[2-(hydroxymethyl)morpholin-4-yl]propyl}-1H-pyrrole-3-carboxamide], the pIC50 in assay [1] is 7.77; in assay [2], 7.92; in assay [3], 8.05.

As for `Cc1ccc(F)c(NC(=O)Nc2ccc(Oc3ccnc(-c4cc(C(=O)NCCCN5CCC(O)CC5)c[nH]4)c3)cc2F)c1` [Example 207, 5-{4-[3-fluoro-4-({[(2-fluoro-5-methylphenyl)amino]carbonyl}amino)phenoxy]pyridin-2-yl}-N-[3-(4-hydroxypiperidin-1-yl)propyl]-1H-pyrrole-3-carboxamide], the pIC50 in assay [1] is 7.77; in assay [2], 8.00; in assay [3] it was 8.15.
